Source: the supplement of paper PMC5579334

Tests used:
HS-Sch-2 [1] = test: % inhibition of CellTiter-Glo viability at highest tested concentration (72 h), relative to DMSO and benzethonium chloride controls; higher = more inhibition
Procedure, shortened: (§1)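 Viability was scored by CellTiter-Glo ATP luminescence, scaled from vehicle to positive-control wells, with duplicates averaged where present. The cells, MPNST lines and primary human Schwann cells at 750–1000 per well, sat 72 h at 37 °C, 5% CO2, in 384-well plates preprinted with each compound at five concentrations in 10-fold steps. Four-parameter logistic fits were run on the data. These fits give drug sensitivity score and relative IC50 censored at the top concentration, and percent inhibition is reported at the top concentration.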

HS-PSS [2] = test: as above
Procedure, shortened: as §1

YST-1 [3] = test: as above
Procedure, shortened: as §1

HS-PSS [4] = test: drug sensitivity score (DSS, CellTox-Green cytotoxicity, 72 h) (DSS (dimensionless)); higher = more cytotoxic; extreme values may be limits of the assay
Procedure, shortened: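 MPNST cell lines and primary human Schwann cells were incubated 72 h at 37 °C in 384-well plates holding five 10-fold compound dilutions. CellTox-Green was added before seeding at a final 1:1000 dilution and reported fluorescence from DNA released by disrupted cells. Signals were scaled to vehicle and positive-control wells, and cultures failing plate quality control were dropped. Drug sensitivity score and relative IC50 come from four-parameter logistic fits, with IC50 censored at the top concentration.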

HS-Sch-2 [5] = test: drug sensitivity score (DSS, CellTiter-Glo viability, 72 h) (DSS (dimensionless)); higher = more sensitive; extreme values may be limits of the assay
Procedure, shortened: as §1

HS-PSS [6] = test: as above
Procedure, shortened: as §1

YST-1 [7] = test: as above
Procedure, shortened: as §1

`Cn1cc(-c2ccc3nnc(Sc4ccc5ncccc5c4)n3n2)cn1` [SGX-523] (max concentration tested 5000 nM) was tested, and the “% inhibition” value (HS-Sch-2 [1]) was 5.27%, the “% inhibition” value (HS-PSS [2]) was 2.63% and the “% inhibition” value (YST-1 [3]) was -2.5%. The drug sensitivity score (HS-PSS [4]) was 0, the drug sensitivity score (HS-Sch-2 [5]) was 0 and the drug sensitivity score (HS-PSS [6]) was 0. The drug sensitivity score (YST-1 [7]) was 0.

For `CCC(C)n1ncn(-c2ccc(N3CCN(c4ccc(OCC5COC(Cn6cncn6)(c6ccc(Cl)cc6Cl)O5)cc4)CC3)cc2)c1=O` (stereo not drawn) [Itraconazole] (max concentration tested 5000 nM), the “% inhibition” value (HS-Sch-2 [1]) was 11.3%, the “% inhibition” value (HS-PSS [2]) was 50.9% and the “% inhibition” value (YST-1 [3]) was 33.2%. The drug sensitivity score (HS-PSS [4]) was 0, the drug sensitivity score (HS-Sch-2 [5]) was 0.33 and the drug sensitivity score (HS-PSS [6]) was 4.25. It also gave a drug sensitivity score (YST-1 [7]) of 1.58.

For `CN1CCN(c2cc(C(=O)Nc3ccc4c(c3)-c3c(c(C(N)=O)nn3-c3ccc(F)cc3)CC4)c(Cl)cn2)CC1` [PHA 408] (max concentration tested 10000 nM), the “% inhibition” value (HS-Sch-2 [1]) was 99.8%, the “% inhibition” value (HS-PSS [2]) was 101% and the “% inhibition” value (YST-1 [3]) was 99.9%. The drug sensitivity score (HS-PSS [4]) was 4.95, the drug sensitivity score (HS-Sch-2 [5]) was 5.4 and the drug sensitivity score (HS-PSS [6]) was 7.02. It also gave a drug sensitivity score (YST-1 [7]) of 5.73.

In the case of `O=C(Nc1cccc(Nc2ncc(Br)c(NCCc3cnc[nH]3)n2)c1)N1CCCC1` [BX-912] (max concentration tested 10000 nM), the “% inhibition” value (HS-Sch-2 [1]) is reported as 78.4%, the “% inhibition” value (HS-PSS [2]) is reported as 44.8% and the “% inhibition” value (YST-1 [3]) is reported as 67%. The drug sensitivity score (HS-PSS [4]) was 0, the drug sensitivity score (HS-Sch-2 [5]) was 4.94 and the drug sensitivity score (HS-PSS [6]) was 3.51. It also gave a drug sensitivity score (YST-1 [7]) of 8.47.

For `Cc1ncc(Cl)cc1NCc1ccc(C(=O)N[C@@H](CC2CCCC2)C(=O)NC2CC2)s1` (max concentration tested 5000 nM), the “% inhibition” value (HS-Sch-2 [1]) was 12.8%, the “% inhibition” value (HS-PSS [2]) was 10.8% and the “% inhibition” value (YST-1 [3]) was 45.9%. It also gave a drug sensitivity score (HS-PSS [4]) of 0, a drug sensitivity score (HS-Sch-2 [5]) of 0.17 and a drug sensitivity score (HS-PSS [6]) of 0. For the same molecule, the drug sensitivity score (YST-1 [7]) was 8.01.

With `Cn1ncnc1[C@H]1c2n[nH]c(=O)c3cc(F)cc(c23)N[C@@H]1c1ccc(F)cc1` [Talazoparib] (max concentration tested 1000 nM) the “% inhibition” value (HS-Sch-2 [1]) was 25.4%, the “% inhibition” value (HS-PSS [2]) was 21.9% and the “% inhibition” value (YST-1 [3]) was 61.3%. The drug sensitivity score (HS-PSS [4]) was 0, the drug sensitivity score (HS-Sch-2 [5]) was 1.84 and the drug sensitivity score (HS-PSS [6]) was 3.37. It also gave a drug sensitivity score (YST-1 [7]) of 15.5.

`CC(C)NC[C@@H](C(=O)N1CCN(c2ncnc3c2[C@H](C)C[C@H]3O)CC1)c1ccc(Cl)cc1` [Ipatasertib] (max concentration tested 10000 nM) was tested, and the “% inhibition” value (HS-Sch-2 [1]) was 39.1%, the “% inhibition” value (HS-PSS [2]) was 37.1% and the “% inhibition” value (YST-1 [3]) was 55.2%. It also gave a drug sensitivity score (HS-PSS [4]) of 0.28, a drug sensitivity score (HS-Sch-2 [5]) of 4.24 and a drug sensitivity score (HS-PSS [6]) of 3.83. For the same molecule, the drug sensitivity score (YST-1 [7]) was 6.9.

For `CN(C)Cc1c(C(=O)NCCOc2ccc(C(=O)NO)cc2)oc2ccccc12` [Abexinostat] (max concentration tested 10000 nM), the “% inhibition” value (HS-Sch-2 [1]) was 101%, the “% inhibition” value (HS-PSS [2]) was 96.2% and the “% inhibition” value (YST-1 [3]) was 101%. For the same molecule, the drug sensitivity score (HS-PSS [4]) was 7.74, the drug sensitivity score (HS-Sch-2 [5]) was 20.5 and the drug sensitivity score (HS-PSS [6]) was 16.5. For the same molecule, the drug sensitivity score (YST-1 [7]) was 24.9.

With `O=C(c1cccc(Cl)c1F)N1CCN(Cc2cccc(Nc3nccs3)n2)CC1` [MK-8745] (max concentration tested 2500 nM) the “% inhibition” value (HS-Sch-2 [1]) was 48.5%, the “% inhibition” value (HS-PSS [2]) was 17.5% and the “% inhibition” value (YST-1 [3]) was 36.5%. It also gave a drug sensitivity score (HS-PSS [4]) of 0.89, a drug sensitivity score (HS-Sch-2 [5]) of 3.17 and a drug sensitivity score (HS-PSS [6]) of 0.32. The drug sensitivity score (YST-1 [7]) was 4.21.
